Four compounds from patent US6790843B1, “C-19-halogen-substituted steroids of the androst-9(11)-ene-series, methods for the production and use thereof” (Schering AG, priority 1999, dated 2004) can be followed below.

The target of one series is T1, human androgen receptor (Homo sapiens, UniProt P10275).
T1 sequence (P10275 1-920): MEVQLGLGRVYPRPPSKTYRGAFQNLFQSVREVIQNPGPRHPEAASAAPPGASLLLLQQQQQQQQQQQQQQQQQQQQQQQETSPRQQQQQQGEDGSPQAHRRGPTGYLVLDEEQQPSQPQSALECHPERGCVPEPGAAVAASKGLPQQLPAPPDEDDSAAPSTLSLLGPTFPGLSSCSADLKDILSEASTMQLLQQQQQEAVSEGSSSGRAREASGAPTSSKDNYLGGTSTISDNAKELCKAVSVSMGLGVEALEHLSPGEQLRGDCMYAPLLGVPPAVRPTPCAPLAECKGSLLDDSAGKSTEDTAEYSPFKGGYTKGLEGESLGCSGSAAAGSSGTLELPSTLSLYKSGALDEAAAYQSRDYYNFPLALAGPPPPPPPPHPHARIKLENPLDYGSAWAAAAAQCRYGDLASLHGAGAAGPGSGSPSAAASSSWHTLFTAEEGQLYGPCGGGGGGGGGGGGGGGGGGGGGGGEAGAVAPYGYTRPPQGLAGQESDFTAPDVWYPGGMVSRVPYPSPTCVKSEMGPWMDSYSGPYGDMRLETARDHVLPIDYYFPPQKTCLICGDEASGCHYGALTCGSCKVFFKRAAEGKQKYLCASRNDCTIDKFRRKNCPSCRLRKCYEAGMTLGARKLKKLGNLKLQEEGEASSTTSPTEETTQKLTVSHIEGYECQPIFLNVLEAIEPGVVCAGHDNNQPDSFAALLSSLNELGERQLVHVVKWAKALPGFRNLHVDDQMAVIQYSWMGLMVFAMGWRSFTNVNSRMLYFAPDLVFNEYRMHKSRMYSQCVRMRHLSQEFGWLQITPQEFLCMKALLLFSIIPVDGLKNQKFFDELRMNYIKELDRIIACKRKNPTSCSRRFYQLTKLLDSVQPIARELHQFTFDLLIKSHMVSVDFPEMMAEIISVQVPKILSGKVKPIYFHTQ
Description: binding affinity to the androgen receptor (reference standard 3H-methyltrienolone R 1881).

Turning to `C[C@]12CC=C3[C@@H](CCC4=CC(=O)CC[C@@]43CBr)[C@@H]1CC[C@@H]2O` [Example 2, 19-Bromo-17β-hydroxy-androsta-4,9(11)-dien-3-one], the melting point is 149 °C (dec.). On human androgen receptor, the “affinity to the androgen receptor (in words)” value is on record as “high affinity”.
In turn, `CCCCCCCSCC[C@]12CC[C@@H]3C(=CC[C@]4(C)[C@@H](O)CC[C@@H]34)[C@@]1(C)CC[C@H](O)C2` gave a melting point of 126 °C.
On the same count and under the same terms, the same measure for `CCn1ccnc1SCC[C@]12CC[C@@H]3C(=CC[C@]4(C)[C@@H](O)CC[C@@H]34)[C@@]1(C)CC[C@H](O)C2`: 212 °C.
For the compound `C[C@]12CC=C3[C@@H](CCC4=CC(=O)CC[C@@]43CI)[C@@H]1CC[C@@H]2O` [iodide 6, 17β-Hydroxy-19-iodo-androsta-4,9(11)-dien-3-one], at human androgen receptor, the IC50 was 57 nM and the “affinity to the androgen receptor (in words)” value was “high affinity”.
